Legend:
[1] = tested on: large intestine and small intestine tissues; assay: Length of large intestine and hematoxylin-eosin staining of small and large intestine tissues of the mice; assay type: in vivo; details: same regimen
Method: A number of 5-week-old male BALB/c strain mice are selected and randomly divided into groups. The experimental period is 18 days. The temperature of rearing environment of the mice in each group is maintained at 22±2° C., with a day and night cycle of 12 hours each. […] After the test period in embodiment 4, large intestine and small intestine tissues of the mice in each group are collected, and a length of the large intestine of the mice in each group is measured respectively, the results are shown in FIG. 6; the large intestine and small intestine of the mice in each group are sliced respectively, and stained with hematoxylin-eosin, the results are shown in FIGS. 7A and 7B.

[2] = tested on: intestinal microflora; assay: Microflora analysis of feces of the mice (OTU clustering, heatmap, PLS-DA, metagenomeSeq); assay type: in vivo
Method: (§1) A number of 5-week-old male BALB/c strain mice are selected and randomly divided into groups. The experimental period is 18 days. The temperature of rearing environment of the mice in each group is maintained at 22±2° C., with a day and night cycle of 12 hours each.
After the test in embodiment 4, the feces of the mice in each group are collected, and sequence analysis of the feces of the mice in each group is outsourced, and then similarity (greater than 97%) OTUs (Operational Taxonomic Units) clustering and species classification analysis are performed. According to the species annotation results, the top 10 species with relative abundance in the mice in each group in the phylum are selected. Wherein fecal sequencing analysis and microflora analysis are known to a person having ordinary skill in the art to which the invention pertains; generally speaking, the fecal samples are firstly performed with DNA extraction and purification, followed by PCR amplification, purification and sequencing, the sequencing results will go through steps of paired sequence splicing (Raw Tags) and filtering to obtain identifiable valid data, and then OTUs clustering and species classification analysis are performed.
According to the species annotation information and abundance information of all the groups in each taxonomic rank, the top 35 genera in abundance are selected, and the group abundance is the average abundance of all the samples in the group. Clustering is performed at the species level to draw a species heatmap of the fecal samples in each group, the results are shown in FIG. 9.
Partial least square discriminant analysis (PLS-DA) is used to analyze the β-diversity of microbial flora in the feces of the mice in each group to determine whether there is a difference in bacterial flora among the microflora of the mice in each group. The microflora data of the mice in each group are analyzed by metagenomeSeq to evaluate specific differences between the microflora of the mice in each group, and the results are shown in FIG. 11A to FIG. 11D.

[3] = tested on: IL-6; assay: Concentration of IL-6 in the serum of the mice (commercial kit); assay type: in vivo; details: same regimen, after the test period; FIG. 5
Method: as §1, with “each. […] After the test period in embodiment 4, the serum of the mice in each group is collected respectively, and the concentration of IL-6 in the serum of the mice in each group is analyzed with a commercial kit.” for “each.”

[4] = tested on: BALB/c strain mice; assay: Animal test: body weight, food intake and diarrhea index of mice given 5-FU drug; assay type: in vivo
Method: as §1
Body weight and feed intake of the mice in each group are measured and recorded every day during the testing period. The results are shown in FIG. 2 and FIG. 3; after administration of 5-FU drug, the feces of the mice in each group are collected, and the diarrhea index of the mice in each group is evaluated, the results are shown in FIG. 4.

[5] = tested on: chemotherapy-induced diarrhea; details: literature, cited from earlier work

Q: For NC(=O)CC[C@H](N)C(=O)O [glutamine, L-glutamine], which “length of large intestine” value ([1]; after the test period, FIG. 6) is on record?
A: maintain their large intestine lengths

Q: What about the “structure of small and large intestine tissues (hematoxylin-eosin)” value ([1]; FIGS. 7A and 7B, compared with 5-FU only (group 2)) of the same molecule?
A: able to mitigate lesion to the structures of the small and large intestines induced by 5-FU drug

Q: And the “relative abundance of Proteobacteria in feces” value ([2]; FIG. 8, compared with 5-FU only (group 2))?
A: can be reduced

Q: What about the “abundances of the microflora associated with diarrhea and enteritis (Escherichia shigella, Odoribacter)” value ([2]; FIG. 9 heatmap, compared with group 2) of the same molecule?
A: lower than that of the mice in group 2

Q: What about the “microflora distribution (PLS-DA, β-diversity)” value ([2]; FIG. 10, relative to group 2) of the same molecule?
A: close to that of the mice in group 2

Q: What about the “relative abundance of UBA1819” value ([2]; metagenomeSeq, FIG. 11A, compared with group 2) of the same molecule?
A: can not be significantly reduced

Q: What about the “relative abundance of Staphylococcus” value ([2]; metagenomeSeq, FIG. 11B, compared with group 2) of the same molecule?
A: can not be significantly reduced

Q: And the “relative abundance of Escherichia shigella” value ([2]; metagenomeSeq, FIG. 11C, compared with group 2)?
A: can be significantly reduced

Q: What about the “relative abundance of Muribaculum” value ([2]; metagenomeSeq, FIG. 11D, compared with group 2 (5-FU only)) of the same molecule?
A: significantly reduced

Q: And the “concentration of IL-6 in the serum” value [3]?
A: significantly lower than that of the mice in group 2

Q: And the body weight ([4]; 5-FU 50 mg/kg/day i.p. days 11-13, BC198 5×10^8/day and/or glutamine 1 g/kg/day oral daily, 18 days, FIG. 2)?
A: able to maintain their body weight

Q: What about the food intake ([4]; same regimen, FIG. 3, group 5 statement for days 14-15) of the same molecule?
A: able to maintain their body weight and food intake

Q: And the diarrhea index ([4]; same regimen, FIG. 4, compared with 5-FU only (group 2), days 14-15)?
A: able to alleviate the diarrhea caused by 5-FU drug

Q: And the doxifluridine-induced diarrhea [5]?
A: incapable of inhibiting

Q: And the “severity of 5-FU/calciumfolinate-induced stomatitis, nausea and diarrhea” value [5]?
A: incapable of mitigating severity

Q: And the “duration of chemotherapy-induced diarrhea” value ([5]; patients)?
A: capable of reducing the duration

Q: And the “severity of chemotherapy-induced diarrhea” value ([5]; patients)?
A: incapable of improving its severity
